# According to patent publication US20250091982A1, “Pharmaceutical Composition, Methods of Use Thereof for Treating Cocaine Addiction, and Novel Use of Hausp K444R Point Mutant Mouse” (PHARWAR BIOTECHNOLOGY, INC. PTE. LTD., priority 2022, published 2025):
# What was measured:
# SIAH1 = molecular target: T1, SIAH1 (Homo sapiens, UniProt Q8IUQ4); test: E3-ligase auto ubiquitination assay (K48-linked polyubiquitination of HAUSP mediated by SIAH1); type: biochemical; conditions: 37° C., 1 hour, Western blot with Ub-K48 antibody, compared to vehicle; FIG. 14A, 14B
# T1 sequence (Q8IUQ4 1-282): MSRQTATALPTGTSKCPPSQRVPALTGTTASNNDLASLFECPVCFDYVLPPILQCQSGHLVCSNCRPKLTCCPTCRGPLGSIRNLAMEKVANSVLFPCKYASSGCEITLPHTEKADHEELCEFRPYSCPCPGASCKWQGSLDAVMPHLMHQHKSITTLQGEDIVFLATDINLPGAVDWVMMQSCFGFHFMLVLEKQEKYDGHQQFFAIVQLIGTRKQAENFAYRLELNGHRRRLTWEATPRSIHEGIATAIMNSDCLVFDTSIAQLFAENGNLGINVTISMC
# Protocol: SIAH1 mediates the K48-linked polyubiquitination of HAUSP. Therefore, for the ubiquitination assay, SIAH1 was incubated in the solution (0.25 mg/1 ml, total 100 μg) containing 20 mM Tris-HCl buffer (pH 8.0), 100 mM NaCl, 1 mM DTT and 40% glycerol and HAUSP (50 μg) was in 50 mM HEPES pH 7.5, 100 mM NaCl, 1 mM TCEP (tris (2-carboxyethyl) phosphine) buffer. […] The E3-ligase auto ubiquitination assay was performed by E3 Ligase Auto-Ubiquitilylation Assay Kit (Abcam, ab139469, UK).
# [1] = test system: HAUSP levels in SH-SY5Y cells; test: Western blot of HAUSP in cocaine-treated SH-SY5Y cells; conditions: cocaine 200 μM with inhibitor, 24 hr; for HAUSP levels decreased by cocaine in SH-SY5Y cells (western blot): FIG. 14C; for relative protein expression ratios of HAUSP normalized with β-actin: quantified with ImageJ, FIG. 14D
Structure (SMILES),inhibition of K48-linked polyubiquitination of HAUSP mediated by SIAH1 (SIAH1),HAUSP levels decreased by cocaine in SH-SY5Y cells (western blot) [1],relative protein expression ratios of HAUSP normalized with β-actin [1]
"COCCNC(=O)c1ccc(Cl)cc1NC(=O)c1c(F)cccc1F [Compound 2-5, 4-Chloro-N-(2-methoxyethyl)-2-(2,6-difluorobenzamido)benzamide]",can inhibit,can restore,can restore
"COCCNC(=O)c1ccc(Cl)cc1NS(=O)(=O)c1ccccc1C [Compound 2-1, 4-Chloro-N-(2-methoxyethyl)-2-((2-methylphenyl)sulfonamido)benzamide]",can inhibit,can restore,can restore
"COCCNC(=O)c1ccc(Br)cc1NC(=O)c1ccccc1C [Compound 4-1, 4-Bromo-N-(2-methoxyethyl)-2-(2-methylbenzamido)benzamide]",can inhibit,can restore,can restore
"COCCNC(=O)c1ccc(Cl)cc1NS(=O)(=O)c1c(C)cc(C)cc1C [Compound 2-4, 4-Chloro-N-(2-methoxyethyl)-2-((2,4,6-trimethylphenyl)sulfonamido)benzamide]",can inhibit,can restore,can restore
"Cc1ccccc1S(=O)(=O)Nc1ccccc1C(=O)NCCO [Compound 12-2, N-(2-hydroxyethyl)-2-(2-methylphenylsulfonamido)benzamide]",can inhibit,can restore,can restore
"COCCNC(=O)c1ccc(C)cc1NC(=O)c1c(C)cc(C)cc1C [Compound 5-2, N-(2-((2-Methoxyethyl)carbamoyl)-5-methylphenyl)-2,4,6-trimethylbenzamide]",can inhibit,can restore,can restore
CC(C)(C)C(=O)Oc1ccc(S(=O)(=O)Nc2ccccc2C(=O)NCCO)cc1 [Compound 12-1],can inhibit,can restore,can restore
"CCCOCCNC(=O)c1ccc(Cl)cc1NC(=O)c1ccccc1C [Compound 7-1, 4-Chloro-N-(2-propoxyethyl)-2-(2-methylbenzamido)benzamide]",can inhibit,can restore,can restore
"CCOCCNC(=O)c1ccc(Cl)cc1NC(=O)c1ccccc1C [Compound 6-1, 4-Chloro-N-(2-ethoxyethyl)-2-(2-methylbenzamido)benzamide]",can inhibit,can restore,can restore
"COCCNC(=O)c1ccc(Br)cc1NC(=O)c1c(C)cc(C)cc1C [Compound 4-2, N-(5-Bromo-2-((2-methoxyethyl)carbamoyl)phenyl)-2,4,6-trimethylbenzamide]",can inhibit,can restore,can restore
"COCCNC(=O)c1ccccc1NC(=O)c1ccccc1C [Compound 3-2, N-(2-Methoxyethyl)-2-(2-methylbenzamido)benzamide]",can inhibit,can restore,can restore
"Cc1ccccc1C(=O)OCCOC(=O)c1ccc(Cl)cc1N [Compound 1-1, 2-((2-Methylbenzoyl)oxy) ethyl 2-amino-4-chlorobenzoate]",can inhibit,can restore,can restore
"COCCNC(=O)c1ccccc1NS(=O)(=O)c1ccccc1C [Compound 3-1, N-(2-Methoxyethyl)-2-((2-methylphenyl)sulfonamido)benzamide]",can inhibit,can restore,can restore
